Results filed as inconclusive are left out.
System: M. tuberculosis H37Rv growth inhibition, 7H9 media
Assay: M. tuberculosis growth inhibition, HTS (AID 449762);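 further: bacterial growth assessed after seven days of incubation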
Settings: for IC90: measured here: IC90 growth inhibition

## Cc1cc(C)n2nc(N)c(N=Nc3ccccc3)c2n1
  IC50: 2.9 µM
  IC90: 3.27 µM

## CCOc1ccc(-n2cc(-c3ccccc3)c3c(=O)[nH]cnc32)cc1
  IC50: 8.41 µM
  IC90: 27.5 µM

## COc1c(C)cc(C(=O)C2CCCN(Cc3ccccn3)C2)cc1C (configuration not stated)
  IC50: 5.8 µM
  IC90: > 100 µM

## CCOc1ccc(-c2[nH]ncc2-c2ccc(Cl)cc2)c(O)c1
  IC50: 46.8 µM
  IC90: 66.5 µM

## COC(=O)c1cc(=O)n(-c2ccc(F)cc2)c(=Nc2ccc(F)cc2)s1
  IC50: < 0.2 µM
  IC90: 1.86 µM

## CC1(C)CC(=O)c2c(O)cc(OCc3ccc(Br)cc3)cc2O1
  IC50: 42 µM
  IC90: 67.3 µM

## Clc1ccc2c(c1)C(c1ccccc1Cl)=NCc1nnc(N3CCN(CCOc4ccccc4)CC3)n1-2
  IC50: 43 µM
  IC90: 48 µM

## O=C(CSc1nc2ccccc2c(=O)[nH]1)NCc1ccc(Cl)cc1
  IC50: 1.09 µM
  IC90: 2.7 µM

## CC(C(c1ccc2c(c1)OCO2)c1c(N)n(C)c(=O)n(C)c1=O)[N+](=O)[O-] (configuration not stated)
  IC50: 2.54 µM
  IC90: 6.08 µM

## C=CCS/C(N)=N\N=C\c1c(O)ccc2ccccc12
  IC50: 12.2 µM
  IC90: 48.6 µM

## COc1cc2c(-c3ccc4[nH]ccc4c3)c(-c3ccc(C#N)cc3)oc(=O)c2cc1OC
  IC90: > 100 µM

## CCCCCCOC(=O)C(C#N)c1nc2ccccc2nc1N1CCN(CC)CC1 (configuration not stated)
  IC50: 20.1 µM
  IC90: 29.7 µM

## O=C(Oc1c(Cl)cc(Cl)c2cccnc12)c1cccs1
  IC50: 0.89 µM
  IC90: 1.24 µM

## CCN1c2ccccc2N(C)C1(C)c1ccccc1 (configuration not stated)
  IC50: 6 µM
  IC90: 6.79 µM

## COc1cccc(-c2cc3nc4c(c(NCC(C)(C)CN(C)C)n3n2)CCCC4)c1
  IC50: 22 µM
  IC90: 28.2 µM

## COc1ccc(C2=Nn3c(nnc3-c3ccccc3F)SC2)cc1OC1CCCC1
  IC50: 8.9 µM
  IC90: 19.6 µM

## Cc1cc(C)c2c(CN3CCN(Cc4ccccc4)CC3)cc(=O)oc2c1C
  IC50: 49.1 µM
  IC90: 54.6 µM

## CN1CCN(Cc2nc3ccccc3c(=O)n2Cc2nc(-c3ccc4ccccc4c3)cs2)CC1
  IC50: 22.3 µM
  IC90: 25.7 µM

## O=C(c1ccccc1)C1CN(Cc2ccccc2)CCC1(O)c1ccccc1 (configuration not stated)
  IC50: 9.4 µM
  IC90: 14.6 µM

## Cc1c(Cl)cccc1-c1ccc(CNCc2ccccn2)o1
  IC50: 0.7 µM
  IC90: 4.03 µM

## Cc1ccc(Cn2nnnc2CN2CCC(c3nc4ccc(Cl)cc4[nH]3)CC2)cc1
  IC50: 26 µM
  IC90: 35.9 µM

## O=c1c(O)c(-c2cccs2)oc2ccccc12
  IC50: 12 µM
  IC90: > 100 µM

## Cc1ccc(C)c(N2CCN(C(=O)c3ccc4nc(N5CCOCC5)sc4c3)CC2)c1
  IC50: 37.6 µM
  IC90: 47.4 µM

## CN(C)CCOc1nc(-c2ccccc2)nc2c1oc1ccccc12
  IC50: 11.8 µM
  IC90: 16.3 µM

## C=C(C)C1Cc2c(C)nn(-c3nc(C)cc(C)n3)c2C1 (configuration not stated)
  IC50: 2.72 µM
  IC90: 6.74 µM

## Cc1cccc(/C=C/C(=O)c2ccc([N+](=O)[O-])o2)c1
  IC50: < 0.2 µM
  IC90: < 0.2 µM

## CCc1ccc(CCOc2ccc(CC3SC(=O)NC3=O)cc2)nc1 (configuration not stated)
  IC50: 23.3 µM
  IC90: > 25 µM

## O=C(Nc1cccc(Cl)c1)N1CCN(C/C=C/c2ccccc2)CC1
  IC50: 37.5 µM
  IC90: 52.7 µM

## COc1cc2c(cc1OC)C(c1cc(Br)ccc1F)N(C(=O)CCl)CC2 (configuration not stated)
  IC50: 2.77 µM
  IC90: 5.69 µM

## CCNc1nc(NCC)nc(N/N=C/c2ccc([N+](=O)[O-])o2)n1
  IC50: 0.99 µM
  IC90: 1.67 µM

## CCCCCCCCCCOC(=O)Cn1c(COc2ccc(Cl)cc2)[n+](C)c2ccccc21
  IC50: 11.8 µM
  IC90: 13.3 µM

## O=C(C1CCCN(c2ncnc3c2nc2n3CCCCC2)C1)N1CCN(c2ccc(Cl)cc2)CC1 (configuration not stated)
  IC50: 30.6 µM
  IC90: 40.3 µM

## COc1ccc(-c2c(C#Cc3ccsc3)c3ccccc3n2C)cc1
  IC50: 25.5 µM
  IC90: 37.8 µM

## COc1ccc(/C=C/CN2CCC(CO)(Cc3ccccc3Cl)CC2)cc1
  IC50: 23.1 µM
  IC90: 26.6 µM

## CN1CCN(CC/C=C2/c3ccccc3Sc3ccc(S(=O)(=O)N(C)C)cc32)CC1
  IC90: > 100 µM

## CN1CCN(CC(=O)N2CCn3c4c(c5cc(C6CCCCC6)ccc53)CCCC42)CC1 (configuration not stated)
  IC50: 21.7 µM
  IC90: 23.6 µM

## Cc1cc(N/N=C2/CCCc3ccccc32)nc2ccccc12
  IC50: 31.7 µM
  IC90: 37.9 µM

## CCOC(=O)C1=C(C)Nc2nc(SCC(=O)OC)nn2C1c1cc(F)cc(F)c1 (configuration not stated)
  IC50: 5.06 µM
  IC90: 7.95 µM

## NC(=O)N=Nc1c2[nH]c3ccccc3nc-2c2ccccc12
  IC50: 4.36 µM
  IC90: 7.08 µM

## NCCCn1c(C(=O)c2ccc(Cl)cc2)c2ccc([N+](=O)[O-])cc2[n+]1[O-]
  IC50: 23.9 µM
  IC90: 32.3 µM

## c1ccc(CN2CCC(Nc3nc(-c4ccccc4)nc4ccccc34)CC2)cc1
  IC50: 10.3 µM
  IC90: 16.3 µM

## O=[N+]([O-])c1ccc(O)c(-c2cc(C(F)(F)F)nc(-c3ccccc3)n2)c1
  IC50: 22.2 µM
  IC90: 23.3 µM

## CCC1CSC(Nc2ccc(C(=O)/C=C/c3cccc(C)c3)cc2)=N1 (configuration not stated)
  IC50: 18.9 µM
  IC90: 27.3 µM

## C1=C(c2c[nH]c3ccccc23)CCNC1
  IC50: 32.4 µM
  IC90: 39.8 µM

## CCN(Cc1ccncc1)Cc1nc(-c2ccc(C(=O)OC)cc2)no1
  IC50: 15.3 µM
  IC90: 41.6 µM

## O=[N+]([O-])c1cnc(Nc2ccc(Cl)cn2)c([N+](=O)[O-])c1
  IC50: 45.8 µM
  IC90: > 100 µM

## O=C(CCN1C(=O)/C(=C/c2ccccc2)SC1=S)Nc1ccccn1
  IC50: 89.9 µM
  IC90: > 100 µM

## Cc1ccc(-c2ccc(C3C(C#N)=C(N)Oc4n[nH]c(C)c43)o2)cc1 (configuration not stated)
  IC50: 24.5 µM
  IC90: 52 µM

## CCCCCCCCn1sccc1=O
  IC50: 1.29 µM
  IC90: 2.12 µM

## Cc1ccc(C(=O)O/N=C(\N)c2ccc(Br)cc2)cc1C
  IC50: 98.9 µM
  IC90: > 100 µM

## CN1/C(=C/C(=O)c2nc(S(C)(=O)=O)ncc2Cl)C(C)(C)c2ccccc21
  IC50: 3.21 µM
  IC90: 10.7 µM

## Cc1nc(N2CCC(C)CC2)c2oc3ccccc3c2n1
  IC50: 24 µM
  IC90: 45.4 µM

## CNc1ccccc1C(=O)OC(C)C(=O)Nc1ccc(Cl)cn1 (configuration not stated)
  IC50: 28.2 µM
  IC90: 51.3 µM

## Cc1ccc(CN2C3CCCC2CC(NC(=S)NCc2ccccc2)C3)cc1 (configuration not stated)
  IC50: 45.8 µM
  IC90: 52.4 µM

## O=c1[nH]c2ccccc2c2oc(CCl)nc12
  IC50: 1.14 µM
  IC90: 19.2 µM

## CCN1/C(=C/c2ccc3cc(C)ccc3[n+]2CC)Sc2ccccc21
  IC50: 1.41 µM
  IC90: 1.61 µM

## CCCCNC(=S)N(C)/N=C/c1ccc2c(c1)OCO2
  IC50: 12.2 µM
  IC90: 20.4 µM

## c1ccc(Cn2c(CNc3nc4ccccc4n3CCN3CCCCC3)nc3ccccc32)cc1
  IC50: 33.8 µM
  IC90: 43.9 µM

## CC(/C=N/NC(=O)c1cc(-c2ccc3ccccc3c2)n[nH]1)=C\c1ccco1
  IC50: 29 µM
  IC90: 51.2 µM

## Cc1ccc(C(=O)C2CCN(CC(=O)Nc3nc(C)cs3)CC2)cc1
  IC50: 13.6 µM
  IC90: 25.2 µM

## Oc1cc(NCc2cccnc2)ccc1-c1nc2ccccc2o1
  IC50: 12.6 µM
  IC90: 44.4 µM

## CCCCC(=O)Nc1sc2c(c1C(=O)OCC)CCC(C=O)=C2Cl
  IC50: 14.6 µM
  IC90: 44.5 µM

## CSc1cccc(NC(=O)CCS(=O)(=O)c2cccc3nonc23)c1
  IC50: 1.72 µM
  IC90: 7.46 µM

## CCN(CC)C(=O)Oc1ccc2c(=O)c(-c3ccc(OC)cc3)coc2c1
  IC50: 28.5 µM
  IC90: > 100 µM

## CCc1c(C)sc(NC(=S)N2CCN(CC)CC2)c1C(=O)OC
  IC50: 12.7 µM
  IC90: > 100 µM

## Cc1ccc(C(=O)N/N=C(/CC(=O)c2cccs2)C(F)(F)F)cc1
  IC50: 2.97 µM
  IC90: 3.28 µM

## CCOc1ccc(/C=C/C2=Cc3c(sc(NC(=O)CSc4n[nH]c(N)n4)c3C#N)C(C)(C)C2)cc1
  IC90: > 100 µM

## Cc1ccc(NCc2ccc(O)c3ncccc23)cc1C
  IC50: 56 µM
  IC90: > 100 µM

## CCCCn1c(SCc2ncc(-c3ccccc3)o2)nc2cc(S(N)(=O)=O)ccc21
  IC50: 3.3 µM
  IC90: 5.84 µM

## CC1(C)Cc2c(C#N)c(N3CCN(C(=O)c4ccccc4)CC3)nc(Cc3ccccc3)c2CO1
  IC50: 28.8 µM
  IC90: > 100 µM

## CC(=O)c1ccc(-n2cc(-c3ccc(C(C)(C)C)cc3)[n+]3c2SCCC3)cc1
  IC50: 4.34 µM
  IC90: 29.5 µM

## COc1ccccc1C1CC(c2c(-c3ccccc3)c3cc(Cl)ccc3[nH]c2=O)=NN1S(C)(=O)=O (configuration not stated)
  IC50: 93.7 µM
  IC90: > 100 µM

## Cc1noc2ncnc(Sc3ccc(Cl)cc3)c12
  IC50: 82.9 µM
  IC90: > 100 µM

## Cn1cnnc1SCc1ccc(-c2ccc(Br)cc2)o1
  IC50: 85.1 µM
  IC90: > 100 µM

## CC1(C)c2cc(Cl)ccc2-n2c1cc(O)c(-c1ccccc1)c2=O
  IC50: 4.43 µM
  IC90: 10.8 µM

## Clc1ccc(-c2[nH]ncc2N=Nc2ccccc2)cc1
  IC50: 31.7 µM
  IC90: > 100 µM

## CCOC(=O)c1nc2sc3c(c2c(=O)[nH]1)CCC(C)C3 (configuration not stated)
  IC50: 46.7 µM
  IC90: > 100 µM

## CC(C)(C)C1CCc2sc(-c3nnc(CCl)o3)cc2C1 (configuration not stated)
  IC50: < 0.2 µM
  IC90: 5.54 µM

## Cc1cc(C(=O)N/N=C\C(Br)=C\c2ccccc2)c(C)o1
  IC50: 38.5 µM
  IC90: 53.8 µM

## CCOc1ccc(-c2cc(CCCC(=O)NCCC(C)C)no2)cc1
  IC50: 6.53 µM
  IC90: 14.3 µM

## CC1=NNC(=O)/C1=C\c1cn(-c2ccccc2)nc1-c1ccc(Cl)cc1
  IC50: 28.7 µM
  IC90: 37.2 µM

## CCOC(=O)Cn1nc(-c2ccccc2)nc1-c1ccccc1
  IC50: 5.84 µM
  IC90: 22.7 µM

## O=C(Sc1nnc(-c2ccccc2)o1)N1c2ccccc2Sc2ccccc21
  IC90: > 100 µM

## CCOC(=O)c1cc(-c2ccccc2)nc2c1c(C)nn2-c1ccccn1
  IC50: 2.97 µM
  IC90: 27.2 µM

## COc1ccc(NC(=O)CSC2=C(C#N)C(c3ccco3)C(C(=O)Nc3nc4ccccc4s3)=C(C)N2)cc1 (configuration not stated)
  IC50: 5.57 µM
  IC90: 7.26 µM

## CSC(=S)N/N=C/c1ccccc1
  IC50: 10.1 µM
  IC90: 12.8 µM

## CCOC(=O)c1ccc(Nc2cc3ccccc3c(=O)[nH]2)cc1
  IC50: 72.3 µM
  IC90: > 100 µM

## Cc1sc2ncnc(Oc3ccc(-n4ccnc4)cc3)c2c1C
  IC50: 33.3 µM
  IC90: 55.5 µM

## Cn1c(NCC(O)c2ccccc2)nc2c1c(=O)n(Cc1ccc(Cl)c(Cl)c1)c(=O)n2C (configuration not stated)
  IC50: 7.51 µM
  IC90: 18.1 µM

## COc1ccc(N=N/C(=C\O)C(=O)c2cccs2)cc1
  IC90: > 100 µM

## CCCCN(C)C(=O)Cc1c(OC)ccc2cc(Br)ccc12
  IC50: 19.5 µM
  IC90: 29.2 µM

From PubChem BioAssay AID449762 (Southern Research Specialized Biocontainment Screening …, 2010)
